Values joined by “and” are separate entries in the source; they are usually repeats but may differ in a detail not shown here. Equal entries are not always repeated. Bridge positions count the residues as written; N and C are the ends. Ends that are not written are not given here.
Columns and labels:
[1] = system: α4β7 integrin binding to MAdCAM-1; assay: Competitive inhibition of binding of α4β7 on RPMI8866 cells to MAdCAM-1 by peptides, viruses, IMCs and controls; assay type: cell-based, human; settings: for % Inhibition ± SD of α4β7 integrin binding to MAdCAM-1: average of 3–7 experiments in triplicate; for Inhibition of α4β7 integrin binding to MAdCAM-1 by peptide (competition): peptide 10 μg/ml, cells pre-incubated 45 min 37°C, 2–4 experiments in triplicate
Protocol: 96-well plates were coated with MAdCAM-1 as described above. RPMI8866 cells (2 X 10^6/ ml) were incubated with cyclic V2 or V3 MN, TH023, or acute subtype C (C-6980v0c22) peptides or with scrambled flanking region (SFL) or the mid region (SMR) TH023 V2 or with a completely scrambled (SCR) TH023 peptide (10 μg/ml) for 45 minutes at 37°C before being added in triplicate to the MAdCAM-1 coated plates for 1 hour at 37°C. In concurrent experiments, RMI8866 cells were incubated with purified primary HIV-1 (0.75 ng to 6 ng/well p24) subtype B (SF162, US-1, JRFL), subtype CRF01_AE viruses (92TH023), IMCs (0.75 ng to 1000 ng/well p24 in each case) containing acute or chronic envelopes (Acute CRF01_AE (703357) [GenBank:JN944658], C (C-6980v0c22) [GenBank:HM215344], A(851891); Chronic CRF01_AE (CM235.2) [AF259954.1], C (ET02220LucR) [U46016]) or with pSG3Δenv. pSG3Δenv contained a four-nucleotide insertion mutation (CTAG) in Env, leading to a translation stop codon after amino acid residue 142. The pSG3Δenv clone is routinely used for generating Env pseudotyped infectious virions.
Viruses were tested in triplicate in two independent experiments. In additional experiments, mannose, HIV-1 p24, and ovalbumin (0.2–10 μg/ml) were used in the competition assay as nonspecific protein controls (data in Table 2; 3–7 experiments performed in triplicate), whereas, an anti-RSV mAb, Synagis® was used as a nonspecific antibody control. Synagis® was incubated for 45 minutes with either MAdCAM-1 or with RPMI8866 cells and then placed in the assay system. The remainder of the assay was similar to that described above. Significance was determined by paired Student’s t test.

α4β7 on RPMI8866 cells [2] = assay: Binding of α4β7 on RPMI8866 cells to plate-bound biotinylated V2/V3 peptides and its inhibition by ACT-1 (AlamarBlue); assay type: cell-based, human; settings: streptavidin plate, biotinylated peptide 5 μg/ml; cells pre-incubated with ACT-1 0.5 μg/ml 45 min 37°C; 8 hour time point; average of 3 to 12 experiments in duplicate or triplicate
Protocol: Triplicate wells of a 96-well U-bottom polystyrene plate (Immunlon) were coated overnight at 4°C with 100 μl of 2 μg/ml of MAdCAM-1 or Streptavidin diluted in 0.05 M bicarbonate buffer, pH 9.6. The streptavidin-coated plates were then incubated with biotinylated cyclic or linear V2 peptides or cyclic V3 peptides (5 μg/ml in bicarbonate buffer, See Table 1 for sequence data) for 1 hour at 37°C. The solution from the plates was discarded and the plates were then blocked with blocking buffer (25 mM TRIS, 2.7 mM potassium chloride, 150 mM sodium chloride, 0.5% casein, 4 mM manganese chloride, pH 7.2) for 1 hour at 37°C. The solution was discarded and the plates were incubated with sample buffer (25 mM TRIS, 2.7 mM potassium chloride, 150 mM sodium chloride, 4 mM manganese chloride, pH 7.2 containing 1% fetal bovine sera) for 45 minutes at 37°C. Plates were manually washed 4 times with blocking buffer followed by the addition of 2 x 10^5 RPMI8866 cells/well that had been pre-incubated for 45 minutes at 37°C with sample buffer, with sample buffer containing 0.5 μg/ml of mAb ACT-1 or as a control, normal mouse serum (1:100). Plates were then incubated at 37°C (5% CO2) for 1 hour, washed 5 times with wash buffer followed by the addition of 100 μl of RPMI-1640 containing 1% FBS, pen/strep/glutamine. The adhered cells were detected by the addition of 10 μl of AlamarBlue® dye. Plates were incubated at 37°C (5% CO2) for 8 hours. Fluorescence was measured at 2 hour intervals using a M2 plate reader. For each condition, a minimum of 2 to 12 independent experiments run in duplicate or triplicate was performed. The optimum amount of coating proteins/peptides and the amount of ACT-1 required to inhibit α4β7 on RPMI8866 cells was determined in separate experiments (data not shown).

α4β7 on RPMI8866 cells [3] = assay: Flow cytometry binding of ACT-1, gp120 and cyclic V2 peptides to RPMI8866 cells; design: species or system human; settings: gp120 2.5 μg (anti-gp145 + anti-mouse Texas Red); biotinylated peptides 1 μg and 5 μg (neutrAvidin-PE); 30 min on ice; n = 2
Protocol: RPMI8866 cells (0.5 x10^6) were incubated for 30 minutes on ice with 10% normal goat sera in PBS to block the Fc receptors. Cells were suspended in cold FACS buffer (PBS-containing 0.5% BSA) and incubated at room temperature for 30 minutes with the mAb ACT-1 conjugated to APC (1 μg). Cells were washed twice with cold FACS buffer, fixed with 2% formaldehyde in PBS, and analyzed on a LSRII flow cytometer. The data was analyzed using FlowJo8.8.6 software (TreeStar Inc.).
RPMI8866 cells (1 x10^6) were suspended in cold FACS buffer (PBS-containing 0.5% BSA) and incubated at room temperature for 30 minutes with LIVE ⁄ DEAD® Fixable Dead Cell Stain (Life Technologies) as per the manufacturer’s instruction. Cells were washed twice with cold FACS buffer before being incubated with 10% goat sera in PBS for 30 minutes on ice. All subsequent incubations were carried out for 30 minutes on ice. CHO- expressed HIV-1IIIB rgp120 (2.5 μg) and biotinylated cyclic V2-TH023 peptide (1 μg and 5 μg) were incubated with RPMI8866 cells. […] Cells were washed twice with cold FACS buffer, fixed with 2% formaldehyde in PBS, and analyzed on a LSRII flow cytometer. The data was analyzed using FlowJo8.8.6 software (TreeStar Inc.).

Row | Molecule | Percent inhibition by ACT-1 of binding of α4β7 on RPMI8866 cells to the plate-bound peptide (α4β7 on RPMI8866 cells [2]) [%] | Inhibition of α4β7 integrin binding to MAdCAM-1 by peptide (competition) [1] | also measured
1 | OC[C@H]1OC(O)[C@@H](O)[C@@H](O)[C@@H]1O (stereo partly drawn) [Mannose, mannose, reference compound] |  |  | % Inhibition ± SD of α4β7 integrin binding to MAdCAM-1 ([1]; 0.2 μg/ml): 6.7 ± 7.6%; % Inhibition ± SD of α4β7 integrin binding to MAdCAM-1 ([1]; 1.0 μg/ml): 7.6 ± 8.8%; % Inhibition ± SD of α4β7 integrin binding to MAdCAM-1 ([1]; 5 μg/ml): 16.3 ± 14.9%; % Inhibition of α4β7 integrin binding to MAdCAM-1 ([1]; 10 μg/ml, average of triplicate determinations from a single experiment): 0%; Inhibition of α4β7 integrin binding to MAdCAM-1 by nonspecific controls (in words) ([1]; 0.2–10 μg/ml): no significant inhibition
2 | CSFNITTELRDKRKKEHALFNNLDIVQLDGNSSLYRLINC (disulfide 1-40 (inferred)) [Cyclic V2 Acute C, cyclic V2 loop peptide based on acute C strain C06980v0c22] | 72.3 |  | 
3 | CSFNITTSIGDKMQKEYALLYKLDIEPIDNDSTSYRLISC (disulfide 1-40 (inferred)) [Cyclic V2 MN, cyclic V2 loop peptide based on MN strain (subtype B)] | 66.3 |  | 
4 | CSFNMTTELRDKKQKVHALFYKLDIVPIEDNTSSSEYRLINC (disulfide 1-42 (inferred)) [Cyclic V2 TH023, biotinylated cyclic V2 loop peptide of gp120, strain 92TH023 (CRF01_AE), HXB2 157–196] | 62.9 | 80–90% | Binding to α4β7 on RPMI8866 cells (flow cytometry) (α4β7 on RPMI8866 cells [3]): bound to α4β7
5 | CTRPNNNTRKSIRIGPGQTFYATGDIIGDIRQAYC (disulfide 1-35 (inferred)) [Cyclic V3 Acute C, cyclic V3 loop peptide based on acute C strain C06980v0c22] | 70.0 |  | 
6 | CTRPNYNKRKRIHIGPGRAFYTTKNIKGTIRQAHC (disulfide 1-35 (inferred)) [Cyclic V3 MN, cyclic V3 loop peptide based on MN strain (subtype B)] | 75.5 | 80% | 
7 | CTRPSNNTRTSINIGPGQVFYRTGDIIGDIRKAYC (disulfide 1-35 (inferred)) [Cyclic V3 TH023, cyclic V3 loop peptide, strain 92TH023, HXB2 295–331] | 67.6 | 80–90% and 80% | 
8 | Synagis: anti-RSV mAb used as a nonspecific antibody control [reference compound] |  |  | Inhibition of α4β7 binding to MAdCAM-1 by nonspecific antibody control ([1]; mAb incubated 45 min either with MAdCAM-1-coated plate or with RPMI8866 cells, 3 experiments): did not inhibit the α4β7 binding
9 | XSFNMTTELRDKKQKVHALFYKLDIVPIEDNTSSSEYRLINX [Linear V2 TH023, linear V2 92TH023 peptide with S-methyl Cysteine at both ends] | 65.5 |  | 
10 | gp120: HIV-1IIIB rgp120 (CHO expressed) [reference compound] |  |  | Binding to α4β7 on RPMI8866 cells (flow cytometry) (α4β7 on RPMI8866 cells [3]): bound to α4β7

Reference: publication PMC4666614, “Identification of New Regions in HIV-1 gp120 Variable 2 and 3 Loops that Bind to α4β7 Integrin Receptor” (PLoS ONE, 2015)
